Source: patent US8470852B2, “Substituted 2-amino-quinoline-3-carboxamides as KCNQ2/3 modulators” (Gruenenthal GmbH, priority 2010, dated 2013)

Legend:
KCNQ2/3 channels = molecular target: T1, KCNQ2/3 channels (Homo sapiens, UniProt O43525+O43526); assay: Fluorescence assay using a voltage sensitive dye (fluorimetry); type: cell-based; conditions: CHO-K1 cells expressing KCNQ2/3 channels; for Emax: relative to retigabine = 100%, read-out: Fluorimetry % efficacy (retigabine = 100%)
T1 construct: expressed in transfected cells; host or cells: CHO-K1 cells, kept under selection antibiotics
Description: Pharmacological Experiments Method I. Fluorescence Assay Using a Voltage Sensitive Dye (Fluorimetry)
[…] CHO-K1 cells expressing KCNQ2/3 channels are cultivated adherently at 37° C., 5% CO2 and 95% humidity in cell culture bottles (e.g. 80 cm^2 TC flasks, Nunc) with DMEM-high glucose (Sigma Aldrich, D7777) including 10% FCS (PAN Biotech, e.g. 3302-P270521) or alternatively MEM Alpha Medium (1×, liquid, Invitrogen, #22571), 10% fetal calf serum (FCS) (Invitrogen, #10270-106, heat-inactivated) and the necessary selection antibiotics.
Before being sown out for the measurements, the cells are washed with 1×DPBS buffer Ca^2+/Mg^2+-free (e.g. Invitrogen, #14190-094) and detached from the bottom of the culture vessel by using Accutase (PAA Laboratories, #L11-007) (incubation with Accutase for 15 min at 37° C.). The cell number is determined using a CASY™ cell counter (TCC, Schärfe System). Depending on the optimal density for each individual cell line, 20,000-30,000 cells/well/100 μl are seeded onto 96-well Corning™ CellBIND™ assay plates (Flat Clear Bottom Black Polystyrene Microplates, #3340). Freshly seeded cells are then left to settle for one hour at room temperature, followed by incubation for 24 hours at 37° C., 5% CO2 and 95% humidity.
The voltage-sensitive fluorescent dye from the Membrane Potential Assay Kit (Red™ Bulk format part R8123 for FLIPR, MDS Analytical Technologies™) is prepared by dissolving the contents of one vessel Membrane Potential Assay Kit Red Component A in 200 ml of extracellular buffer (ES buffer, 120 mM NaCl, 1 mM KCl, 10 mM HEPES, 2 mM CaCl2, 2 mM MgCl2, 10 mM glucose; pH 7.4). After removal of the nutrient medium, the cells are washed once with 200 μl of ES buffer, then loaded for 45 min at room temperature in 100 μl of dye solution in the dark.
Fluorescence measurements are carried out in a BMG Labtech FLUOstar™, BMG Labtech NOVOstar™ or BMG Labtech POLARstar™ instrument (525 nm excitation, 560 nm emission, Bottom Read mode). After incubation with the dye, 50 μl of the test substances in the desired concentrations, or 50 μl of ES buffer for control purposes, are applied to the wells of the assay plate and incubated for 30 min at room temperature while being shielded from light. The fluorescence intensity of the dye is then measured for 5 min and the fluorescence value F1 of each well is thus determined at a given, constant time. 15 μl of a KCl solution are then added to each well (final concentration of potassium ions 92 mM). The change in fluorescence intensity is subsequently monitored until all the relevant values have been obtained (mainly 5-30 min). At a given time post KCl application, a fluorescence value F2 is determined, in this case at the time of the fluorescence peak.
For calculation, the fluorescence intensity F2 is corrected for the fluorescence intensity F1, and the activity (ΔF/F) of the target compound on the potassium channel is determined as follows:
In order to determine whether a substance has agonistic activity,
[formula] can be related to
[formula] of control wells.
[formula] is determined by adding to the well only the buffer solution instead of the test substance, determining the value F1K of the fluorescence intensity, adding the potassium ions as described above, and measuring a value F2K of the fluorescence intensity. F2K and F1K are then calculated as follows: […]
A substance has an agonistic activity on the potassium channel if
[formula] is greater than
Independently of the comparison of
[formula] it is possible to conclude that a target compound has agonistic activity if
[formula] increases dose dependently.
Calculations of EC50 and IC50 values are carried out with the aid of ‘Prism v4.0’ software (GraphPad Software™).

[1] = tested on: formalin-induced nociceptive behaviour, second (late) phase; assay: Formalin test carried out on mice; type: in vivo
Description: Method III. Formalin Test Carried Out on Mice In the formalin test, the testing to determine the antinociceptive effect of the compounds according to the invention is carried out on male mice (NMRI, 20 to 30 g body weight, Iffa, Credo, Belgium). In the formalin test as described by D. Dubuisson et al., Pain 1977, 4, 161-174, a distinction is drawn between the first (early) phase (up to 10 minutes after the injection of formalin) and the second (late) phase (up to 60 minutes after the injection of formalin). The early phase, as an immediate reaction to the injection of formalin, is a model of acute pain, whereas the late phase is regarded as a model of persistent (chronic) pain (T. J. Coderre et al., Pain 1993, 52, 259-285). […] Subsequently, the nociceptive behaviour is continuously detected by observing the animals over a test period of three minutes in the second (late) phase of the formalin test (21 to 24 minutes after the injection of formalin). The pain behaviour is quantified by adding up the seconds over which the animals display licking and biting of the paw in question during the test period. […] Based on the quantification of the pain behaviour, the effect of the substance is determined in the formalin test as a percentage change relative to the corresponding control. […]

[2] = tested on: acute noxious thermal stimulus (tail withdrawal reflex); assay: Low-intensity tail flick test (rat); type: in vivo; conditions: dose 21.5 mg/kg
Description: Method II. Low-Intensity Tail Flick Test (Rat) In the low-intensity tail flick test, the determination of the antinociceptive effect of the compounds according to the invention towards an acute noxious thermal stimulus is carried out by measuring the withdrawal reflex of the rat tail (tail flick) in response to a radiant heat beam (analgesia meter; model 2011 of the company Rhema Labortechnik, Hofheim, Germany) according to the method described by D'Amour and Smith (J. Pharm. Exp. Ther. 72, 74 79 (1941). To this end, the rats were placed in a plexiglas restrainer, and a low-intensity radiant heat beam (48° C.) was focused onto the dorsal surface of the tail root. […] Before administration of a compound according to the invention, the animals were pre-tested twice in the course of five minutes and the mean of these measurements was calculated as the pre-test mean. The antinociceptive effect was determined at 20, 40 and 60 min after peroral compound administration. The antinociceptive effect was calculated based on the increase in the tail withdrawal latency according to the following formula and is expressed as percentage of the maximum possible effect (MPE [%]): MPE=[(T1−T0)/(T2−T0)]*100 In this, T0 is the control latency time before and T1 the latency time after administration of the compound, T2 is the cutoff time and MPE is the maximum possible effect. […]

For `CCN(CC)c1nc2cc(C(F)(F)F)ccc2c(C)c1C(=O)NCc1cccc(F)c1` [Example 7, 2-diethylamino-N-[(3-fluorophenyl)-methyl]-4-methyl-7-(trifluoromethyl)-quinoline-3-carboxylic acid amide], the EC50 (KCNQ2/3 channels) was 466 nM, the Emax (KCNQ2/3 channels) was 199% and the “Formalin test, mice, intravenous, MPE (dose)” value ([1]; dose 10.0 mg/kg) was 65% (10.0).
For `CCNc1nc2cc(C(F)(F)F)ccc2c(C)c1C(=O)NCc1ccc(F)cc1` [Example 8, 2-ethylamino-N-[(4-fluorophenyl)-methyl]-4-methyl-7-(trifluoromethyl)-quinoline-3-carboxylic acid amide], the EC50 (KCNQ2/3 channels) was 307 nM and the Emax (KCNQ2/3 channels) was 157%.
Work on `Cc1c(C(=O)NCc2ccc(F)cc2)c(N2CCCC2)nc2cc(C(F)(F)F)ccc12` [Example 6, N-[(4-fluorophenyl)-methyl]-4-methyl-2-pyrrolidin-1-yl-7-(trifluoromethyl)-quinoline-3-carboxylic acid amide] yielded an EC50 (KCNQ2/3 channels) of 593 nM and an Emax (KCNQ2/3 channels) of 204%.
Work on `Cc1c(C(=O)NCc2cccc(F)c2)c(N(C)C)nc2cc(C(F)(F)F)ccc12` [Example 4, 2-dimethylamino-N-[(3-fluorophenyl)-methyl]-4-methyl-7-(trifluoromethyl)-quinoline-3-carboxylic acid amide] yielded an EC50 (KCNQ2/3 channels) of 510 nM and an Emax (KCNQ2/3 channels) of 140%.
Work on `CNc1nc2cc(C(F)(F)F)ccc2c(C)c1C(=O)NCc1cccc(F)c1` [Example 9, N-[(3-fluorophenyl)-methyl]-4-methyl-2-methylamino-7-(trifluoromethyl)-quinoline-3-carboxylic acid amide] yielded an EC50 (KCNQ2/3 channels) of 403 nM and an Emax (KCNQ2/3 channels) of 111%.
In the case of `CCNc1nc2cc(C(F)(F)F)ccc2c(C)c1C(=O)NCc1cccc(F)c1` [Example 1, 2-ethylamino-N-[(3-fluorophenyl)-methyl]-4-methyl-7-(trifluoromethyl)-quinoline-3-carboxylic acid amide], the EC50 (KCNQ2/3 channels) is reported as 252 nM, the Emax (KCNQ2/3 channels) is reported as 141% and the “Low intensity tail flick, rat, peroral, MPE (dose)” value [2] is reported as 44% (21.5). The “Formalin test, mice, intravenous, MPE (dose)” value ([1]; dose 4.64 mg/kg) was 71% (4.64).
Work on `Cc1c(C(=O)NCc2cccc(F)c2)c(N2CCOCC2)nc2cc(C(F)(F)F)ccc12` [Example 10, N-[(3-Fluorophenyl)-methyl]-4-methyl-2-morpholin-4-yl-7-(trifluoromethyl)-quinoline-3-carboxylic acid amide] yielded an EC50 (KCNQ2/3 channels) of 1070 nM and an Emax (KCNQ2/3 channels) of 181%.
`CCN(CC)c1nc2cc(C(F)(F)F)ccc2c(C)c1C(=O)NCc1ccc(F)cc1` [Example 5, 2-diethylamino-N-[(4-fluorophenyl)-methyl]-4-methyl-7-(trifluoromethyl)-quinoline-3-carboxylic acid amide] was tested, and the EC50 (KCNQ2/3 channels) was 721 nM and the Emax (KCNQ2/3 channels) was 205%.
`Cc1c(C(=O)NCc2ccc(F)cc2)c(N(C)C)nc2cc(C(F)(F)F)ccc12` [Example 3, 2-dimethylamino-N-[(4-fluorophenyl)-methyl]-4-methyl-7-(trifluoromethyl)-quinoline-3-carboxylic acid amide] gave an EC50 (KCNQ2/3 channels) of 350 nM and an Emax (KCNQ2/3 channels) of 105%.
In the case of `Cc1c(C(=O)NCc2cccc(F)c2)c(N2CCCC2)nc2cc(C(F)(F)F)ccc12` [Example 2, N-[(3-fluorophenyl)-methyl]-4-methyl-2-pyrrolidin-1-yl-7-(trifluoromethyl)-quinoline-3-carboxylic acid amide], the EC50 (KCNQ2/3 channels) is reported as 801 nM and the Emax (KCNQ2/3 channels) is reported as 186%.
